This note sets out measurements from ChEMBL document CHEMBL2311352, “Discovery of 4-phenyl-2-phenylaminopyridine based TNIK inhibitors” (Bioorg Med Chem Lett, 2013).

Data set [1] concerns the target T1, TRAF2 and NCK-interacting protein kinase (Homo sapiens, UniProt Q9UKE5). As to the kind of experiment: Inhibition of TNIK (unknown origin) by ADP glo luminescent assay.
Target sequence in this assay (Q9UKE5 whole entry): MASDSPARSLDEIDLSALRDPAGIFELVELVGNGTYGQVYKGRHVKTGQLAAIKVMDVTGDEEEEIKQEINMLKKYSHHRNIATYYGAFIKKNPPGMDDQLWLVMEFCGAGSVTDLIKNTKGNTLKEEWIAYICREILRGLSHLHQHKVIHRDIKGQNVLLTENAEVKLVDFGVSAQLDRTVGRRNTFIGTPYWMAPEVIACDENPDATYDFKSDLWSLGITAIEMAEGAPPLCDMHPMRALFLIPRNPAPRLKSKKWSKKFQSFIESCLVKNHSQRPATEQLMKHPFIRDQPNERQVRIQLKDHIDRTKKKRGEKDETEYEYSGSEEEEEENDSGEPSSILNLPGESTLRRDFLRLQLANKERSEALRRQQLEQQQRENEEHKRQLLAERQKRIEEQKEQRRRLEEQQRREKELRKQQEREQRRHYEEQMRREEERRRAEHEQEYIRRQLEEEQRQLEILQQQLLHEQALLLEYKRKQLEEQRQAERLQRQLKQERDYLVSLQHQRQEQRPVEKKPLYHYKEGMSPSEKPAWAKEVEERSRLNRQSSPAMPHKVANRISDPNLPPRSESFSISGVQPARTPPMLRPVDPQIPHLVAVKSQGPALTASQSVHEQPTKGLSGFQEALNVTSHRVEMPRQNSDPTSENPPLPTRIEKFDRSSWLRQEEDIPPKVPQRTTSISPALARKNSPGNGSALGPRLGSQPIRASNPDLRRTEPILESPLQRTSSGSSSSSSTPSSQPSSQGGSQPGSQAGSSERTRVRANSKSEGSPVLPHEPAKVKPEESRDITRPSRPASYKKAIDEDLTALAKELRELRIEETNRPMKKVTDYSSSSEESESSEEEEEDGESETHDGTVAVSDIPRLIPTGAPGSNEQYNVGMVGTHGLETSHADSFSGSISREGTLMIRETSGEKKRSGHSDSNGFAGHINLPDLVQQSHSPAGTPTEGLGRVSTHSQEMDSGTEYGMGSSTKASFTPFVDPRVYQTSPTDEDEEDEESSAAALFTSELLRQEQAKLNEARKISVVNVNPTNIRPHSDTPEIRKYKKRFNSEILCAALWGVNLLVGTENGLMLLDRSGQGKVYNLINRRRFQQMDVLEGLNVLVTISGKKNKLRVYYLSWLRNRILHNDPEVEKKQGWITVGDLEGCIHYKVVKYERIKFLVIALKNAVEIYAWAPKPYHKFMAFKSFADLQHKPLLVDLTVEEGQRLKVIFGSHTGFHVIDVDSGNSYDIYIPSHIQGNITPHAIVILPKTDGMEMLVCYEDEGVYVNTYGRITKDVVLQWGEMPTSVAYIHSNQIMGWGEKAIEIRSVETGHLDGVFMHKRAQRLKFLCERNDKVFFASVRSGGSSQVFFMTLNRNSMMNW
For data set [2], the target named is Serine/threonine-protein kinase Chk1 (Homo sapiens) (UniProt O14757). Nature of the data set: Inhibition of CHK1 (unknown origin) at 1 uM.
Serine/threonine-protein kinase Chk1 (Homo sapiens), sequence (O14757 whole entry): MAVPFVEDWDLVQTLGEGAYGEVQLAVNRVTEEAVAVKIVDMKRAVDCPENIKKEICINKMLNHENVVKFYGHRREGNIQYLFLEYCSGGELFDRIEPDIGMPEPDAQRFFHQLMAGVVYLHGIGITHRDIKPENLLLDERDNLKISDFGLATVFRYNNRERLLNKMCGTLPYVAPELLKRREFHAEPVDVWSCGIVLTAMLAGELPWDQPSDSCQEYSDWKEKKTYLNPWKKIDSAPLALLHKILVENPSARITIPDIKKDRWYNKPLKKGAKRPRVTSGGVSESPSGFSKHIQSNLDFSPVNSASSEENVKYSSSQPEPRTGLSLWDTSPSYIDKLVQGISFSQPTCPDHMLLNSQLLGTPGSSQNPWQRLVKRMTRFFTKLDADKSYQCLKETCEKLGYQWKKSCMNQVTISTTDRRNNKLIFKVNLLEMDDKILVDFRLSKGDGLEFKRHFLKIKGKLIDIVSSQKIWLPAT
Data set [3] can be described thus: Solubility of the compound in phosphate buffer at pH 7.4. The data set is classed as physicochemical.
Data set [4] concerns the target T1, TRAF2 and NCK-interacting protein kinase. Nature of the data set: Inhibition of TNIK-mediated TCF4/[…] transcription in human HCT116 cells by beta-lactamase reporter gene assay. The data set is classed as cell-based, HCT-116. Background: Reporter assays use an easily measured gene product as a stand-in for the process of interest.
Target sequence in this assay (Q9UKE5 whole entry): as the sequence (Q9UKE5 whole entry) above
Data set [5] is described as follows: Apparent permeability across apical to basolateral side in human Caco2 cells. Type of data set: ADME, cell-based. Conditions: Caco-2. In general terms: Passage across Caco-2 layers is used to estimate intestinal permeability.
Data set [6] concerns the target Mitogen-activated protein kinase kinase kinase kinase 4 (Homo sapiens) (UniProt O95819). Conditions: 1 uM.
Data set [7] addresses Macrophage colony-stimulating factor 1 receptor (Homo sapiens) (UniProt P07333). Nature of the data set: Inhibition of FMS (unknown origin) at 1 uM.
The target in data set [8] is CDK6/cyclin D1 (Homo sapiens) (UniProt P24385+Q00534). As to the kind of experiment: Inhibition of CDK6/Cyclin D1 (unknown origin) at 1 uM. The data set is classed as protein-complex assay.
The target of data set [9] is T1, TRAF2 and NCK-interacting protein kinase. Conditions: 1 uM.
Target sequence in this assay (Q9UKE5 whole entry, looked up): as the sequence (Q9UKE5 whole entry) above
For data set [10], the target named is Receptor-type tyrosine-protein kinase FLT3 (Homo sapiens) (UniProt P36888). As to the kind of experiment: Inhibition of FLT3 (unknown origin) at 1 uM.
The target of data set [11] is Inhibitor of nuclear factor kappa-B kinase subunit epsilon (Homo sapiens) (UniProt Q14164). As to the kind of experiment: Inhibition of IKKepsilon (unknown origin) at 1 uM.
Inhibitor of nuclear factor kappa-B kinase subunit epsilon (Homo sapiens), sequence (Q14164 whole entry): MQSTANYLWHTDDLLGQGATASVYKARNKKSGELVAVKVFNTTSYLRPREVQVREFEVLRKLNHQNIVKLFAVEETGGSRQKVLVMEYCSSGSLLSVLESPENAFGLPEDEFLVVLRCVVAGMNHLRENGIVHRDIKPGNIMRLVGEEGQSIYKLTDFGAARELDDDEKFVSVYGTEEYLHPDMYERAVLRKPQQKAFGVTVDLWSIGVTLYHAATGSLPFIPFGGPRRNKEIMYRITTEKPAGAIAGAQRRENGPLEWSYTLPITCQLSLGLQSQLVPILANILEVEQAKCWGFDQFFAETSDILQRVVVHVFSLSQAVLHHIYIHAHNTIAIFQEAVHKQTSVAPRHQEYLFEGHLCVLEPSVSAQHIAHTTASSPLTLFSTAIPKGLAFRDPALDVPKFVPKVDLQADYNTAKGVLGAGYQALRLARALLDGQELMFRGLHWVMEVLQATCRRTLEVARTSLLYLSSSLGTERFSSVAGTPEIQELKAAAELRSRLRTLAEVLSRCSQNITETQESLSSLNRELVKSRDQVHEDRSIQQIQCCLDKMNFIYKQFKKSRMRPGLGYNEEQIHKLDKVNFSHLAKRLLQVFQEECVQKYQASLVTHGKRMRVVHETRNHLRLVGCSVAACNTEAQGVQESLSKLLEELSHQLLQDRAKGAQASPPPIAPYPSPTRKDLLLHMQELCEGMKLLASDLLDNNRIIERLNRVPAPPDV
Data set [12] is described as follows: Apparent permeability across basolateral to apical side in human Caco2 cells. The data set is classed as ADME, cell-based. Conditions: Caco-2.
For data set [13], the target named is Voltage-gated inwardly rectifying potassium channel KCNH2 (Homo sapiens, UniProt Q12809). Nature of the data set: Inhibition of human ERG by patch clamp assay.
Voltage-gated inwardly rectifying potassium channel KCNH2, sequence (Q12809 whole entry): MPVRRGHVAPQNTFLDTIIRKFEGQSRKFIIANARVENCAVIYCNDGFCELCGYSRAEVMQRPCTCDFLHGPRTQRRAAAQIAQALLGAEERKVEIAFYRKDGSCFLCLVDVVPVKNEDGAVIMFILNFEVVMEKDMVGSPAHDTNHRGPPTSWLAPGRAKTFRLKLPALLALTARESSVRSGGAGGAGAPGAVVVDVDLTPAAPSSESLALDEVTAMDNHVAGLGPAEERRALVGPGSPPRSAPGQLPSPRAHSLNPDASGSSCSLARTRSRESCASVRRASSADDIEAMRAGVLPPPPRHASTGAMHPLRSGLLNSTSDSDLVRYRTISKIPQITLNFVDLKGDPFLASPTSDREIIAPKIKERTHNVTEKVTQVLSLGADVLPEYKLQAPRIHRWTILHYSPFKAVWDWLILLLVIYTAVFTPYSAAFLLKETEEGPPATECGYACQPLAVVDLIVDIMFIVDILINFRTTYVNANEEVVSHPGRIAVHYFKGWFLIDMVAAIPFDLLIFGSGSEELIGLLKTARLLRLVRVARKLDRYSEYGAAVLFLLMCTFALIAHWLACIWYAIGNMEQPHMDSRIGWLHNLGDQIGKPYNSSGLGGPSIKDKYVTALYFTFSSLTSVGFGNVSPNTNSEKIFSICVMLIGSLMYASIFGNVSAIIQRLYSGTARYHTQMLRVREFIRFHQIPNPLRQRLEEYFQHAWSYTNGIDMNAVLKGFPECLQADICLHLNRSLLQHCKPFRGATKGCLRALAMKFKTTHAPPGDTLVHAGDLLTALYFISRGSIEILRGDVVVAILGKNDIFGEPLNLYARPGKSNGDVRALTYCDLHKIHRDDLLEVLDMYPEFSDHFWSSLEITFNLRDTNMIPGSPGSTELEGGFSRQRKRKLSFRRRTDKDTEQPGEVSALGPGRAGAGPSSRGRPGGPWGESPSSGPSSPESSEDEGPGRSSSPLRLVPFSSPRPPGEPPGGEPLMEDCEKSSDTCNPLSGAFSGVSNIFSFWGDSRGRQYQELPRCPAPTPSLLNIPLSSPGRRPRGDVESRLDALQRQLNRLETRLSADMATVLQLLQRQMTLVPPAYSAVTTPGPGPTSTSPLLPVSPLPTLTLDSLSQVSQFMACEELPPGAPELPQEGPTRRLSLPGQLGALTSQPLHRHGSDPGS
Another data set concerns HEK293. As to the kind of experiment: Cytotoxicity against wnt-inactivated human HEK293 cells assessed as cell viability. The data set is classed as functional, cell-based.
The test system of the next data set is HeLa. As to the kind of experiment: Cytotoxicity against wnt-inactivated human HeLa cells assessed as cell viability. Type of data set: functional, cell-based.
The test system of the next data set is HCT-116. As to the kind of experiment: Cytotoxicity against wnt-activated human HCT116 cells assessed as cell viability. Type of data set: functional, cell-based.
A further data set has as its system DLD-1. Nature of the data set: Cytotoxicity against wnt-activated human DLD1 cells assessed as cell viability. The data set is classed as functional, cell-based.
Data set [14] has as its target T1, TRAF2 and NCK-interacting protein kinase. As to the kind of experiment: Ratio of IC50 for TNIK-mediated TCF4/[…] transcription in human HCT116 cells to IC50 for TNIK (unknown origin). Type of data set: cell-based. Conditions: HCT-116.
Target sequence in this assay (Q9UKE5 whole entry, looked up): as the sequence (Q9UKE5 whole entry) above
The target is the same in data set [15]. As to the kind of experiment: Competitive binding affinity to TNIK (unknown origin) in presence of ATP.
Target sequence in this assay (Q9UKE5 whole entry): as above
The subject of another data set is Caco-2. As to the kind of experiment: Ratio of apparent permeability across basolateral to apical side over apical to basolateral side in human Caco2 cells. The data set is classed as ADME, cell-based.
Data set [16] is described as follows: Inhibition of CBP binding to […] in human SW480 cells by immunoblot analysis. The data set is classed as cell-based. (In general: In western blotting, separated proteins are transferred to a membrane and probed.)

The structures appear in SMILES notation. pIC50, pKd: −log10 of the molar value. ≈ marks a conversion by molar mass, not a printed value.

Mitogen-activated protein kinase kinase kinase kinase 4 (Homo sapiens), sequence (O95819 2-1239 limits assumed): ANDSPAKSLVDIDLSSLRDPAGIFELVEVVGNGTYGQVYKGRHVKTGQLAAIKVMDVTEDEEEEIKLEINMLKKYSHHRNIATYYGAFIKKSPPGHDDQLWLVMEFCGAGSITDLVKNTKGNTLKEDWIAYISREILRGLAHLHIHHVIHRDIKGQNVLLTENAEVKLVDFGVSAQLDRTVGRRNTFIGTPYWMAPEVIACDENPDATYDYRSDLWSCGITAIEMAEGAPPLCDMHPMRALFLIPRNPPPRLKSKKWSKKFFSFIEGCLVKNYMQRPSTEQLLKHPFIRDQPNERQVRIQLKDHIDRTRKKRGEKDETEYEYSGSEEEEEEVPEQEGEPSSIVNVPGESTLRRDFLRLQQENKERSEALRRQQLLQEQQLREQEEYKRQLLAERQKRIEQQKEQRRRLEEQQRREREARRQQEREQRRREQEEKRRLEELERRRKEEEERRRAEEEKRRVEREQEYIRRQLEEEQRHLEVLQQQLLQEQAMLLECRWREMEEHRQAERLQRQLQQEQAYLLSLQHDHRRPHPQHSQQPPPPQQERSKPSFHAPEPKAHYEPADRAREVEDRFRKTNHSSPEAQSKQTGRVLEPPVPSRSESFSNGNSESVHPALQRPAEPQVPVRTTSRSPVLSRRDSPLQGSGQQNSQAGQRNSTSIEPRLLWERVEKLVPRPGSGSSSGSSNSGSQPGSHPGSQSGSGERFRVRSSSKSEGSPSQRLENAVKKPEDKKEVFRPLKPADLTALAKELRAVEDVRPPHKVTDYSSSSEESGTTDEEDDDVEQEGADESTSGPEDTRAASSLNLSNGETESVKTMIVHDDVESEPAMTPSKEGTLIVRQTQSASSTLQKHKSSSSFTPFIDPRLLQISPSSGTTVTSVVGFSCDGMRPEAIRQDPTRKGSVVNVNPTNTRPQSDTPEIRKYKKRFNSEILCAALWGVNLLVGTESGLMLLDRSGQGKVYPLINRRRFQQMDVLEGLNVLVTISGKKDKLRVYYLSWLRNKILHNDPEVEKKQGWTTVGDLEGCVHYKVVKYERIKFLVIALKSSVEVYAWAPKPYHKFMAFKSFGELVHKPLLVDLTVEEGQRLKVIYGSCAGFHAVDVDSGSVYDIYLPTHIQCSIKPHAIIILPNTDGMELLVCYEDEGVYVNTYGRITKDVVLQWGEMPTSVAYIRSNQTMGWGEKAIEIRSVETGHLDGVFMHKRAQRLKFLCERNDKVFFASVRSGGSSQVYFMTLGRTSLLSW

The pIC50 is −log10 of the IC50, conventionally taken in molar units. Turning to `COc1ccc(C(F)(F)F)cc1-c1ccnc(Nc2ccc(N3CCOCC3)c(OC)c2)c1`, the pIC50 in data set [1] was 6.56.

By inhibition is commonly meant how much of the control response was suppressed. Low readings indicate a response near the control, high ones a response far below the control. Usually solubility stands for the dissolved amount per volume that the medium holds. A lower solubility goes with little dissolved substance. For orientation: Papp A→B means how fast a substance crosses the layer from the apical side. What is called Papp B→A is how fast a substance crosses the layer from the basolateral side. As to `COc1cc(Nc2cc(-c3cccc(C#N)c3)ccn2)ccc1N1CCN(C)CC1`, the inhibition was greater than 50% in data set [2]; greater than 95% in data set [6]; 50% in data set [7]; greater than 50% in data set [8]; greater than 95% in [9]; 50% in [10]. Further, the inhibition in data set [11] was greater than 80%. The solubility in [3] stood at 78 µM (≈ 31.2 µg/mL). For the same molecule, the pIC50 in data set [4] was 4.57; in data set [1], 8.22. The Papp A→B in data set [5] stood at 16 ×10⁻⁶ cm/s. The Papp B→A in data set [12] stood at 14.2 ×10⁻⁶ cm/s.

Turning to `COc1ccc(Cl)cc1-c1ccnc(Nc2ccc(N3CCOCC3)c(OC)c2)c1`, the pIC50 in data set [13] is 4.70; in data set [1], 7.39.

In the case of `COc1ccc(C#N)cc1-c1ccnc(Nc2ccc(N3CCOCC3)c(OC)c2)c1`, the negative logarithm of the IC50 (pIC50) was 6.98 in the data set with HEK293, 5.17 with HeLa, 5.64 in the data set with HCT-116 and 5.24 in the data set with DLD-1.

`COc1ccc(C#N)cc1-c1ccnc(Nc2ccc(N3CCC(N(C)C)CC3)c(F)c2)c1`: the pIC50 in data set [4] was 5.51; in the data set with HEK293 it was 7.37; in the data set on HeLa, 5.92; in the data set on HCT-116, 6.59; with DLD-1 it was 6.48; in data set [1], 7.96. The Ratio IC50 in data set [14] was found to be 280.

By pKd is commonly meant the negative decadic logarithm of the Kd, by convention in mol/L. In [3], `COc1cc(Nc2cc(-c3cccc(CC#N)c3)ccn2)ccc1N1CCN(C)CC1` registered a solubility of 94 µM (≈ 38.9 µg/mL). Further, the pKd in [15] is 6.66. For the same molecule, in data set [5], the Papp A→B is 20.5 ×10⁻⁶ cm/s. Further, the Ratio in the data set on Caco-2 was determined as 0.93. Further, the Papp B→A in [12] was determined as 19.1 ×10⁻⁶ cm/s. The negative-log IC50 (pIC50) in [1] is 6.54.

The molecule `COc1ccc(C#N)cc1-c1ccnc(Nc2ccc(N3CCN(C)CC3)c(OC)c2)c1` gave a pIC50 in data set [1] of 8.52.

Turning to `COc1ccc(C#N)cc1-c1ccnc(Nc2ccc(N3CCN(C)CC3)cc2)c1`, the pIC50 in data set [4] was less than 4.52; in [1], 8.30. For the same molecule, in data set [14], the Ratio IC50 was greater than 6000.

On to `COc1ccc(Cl)cc1-c1ccnc(Nc2ccc(N3CCN(C)CC3)c(OC)c2)c1`, for which the pIC50 in data set [4] was 5.10; in data set [1], 8.40. Besides, in [14], the Ratio IC50 is 2000.

For the molecule `COc1ccc(C#N)cc1-c1ccnc(Nc2ccc(N3CCOCC3)cc2)c1`, the pIC50 in data set [4] is 4.59; in data set [1], 7.96. Besides, the Ratio IC50 in data set [14] turned out to be 2400.

`COc1cc(C#N)cc(-c2ccnc(Nc3ccc(N4CCOCC4)c(OC)c3)c2)c1` gave a pIC50 in [1] of 7.20.

In the case of `O=C1[C@H](Cc2ccc(O)cc2)N2C(=O)CCN(C(=O)NCc3ccccc3)[C@H]2CN1Cc1cccc2ccccc12`, the pIC50 in [16] was 5.89.

In [1], `COc1ccc(F)cc1-c1ccnc(Nc2ccc(N3CCOCC3)c(OC)c2)c1` had a pIC50 of 6.93.

In turn, `COc1cc(Nc2cc(-c3ccc(C#N)cc3)ccn2)ccc1N1CCOCC1` gave a pIC50 in data set [1] of less than 6.00.

On to `COc1ccc(Cl)cc1-c1ccnc(Nc2ccc(CCN3CCOCC3)cc2)c1`, for which the pIC50 is 7.23 in the data set on HEK293; 5.43 in the data set on HeLa; 5.77 in the data set with HCT-116; 5.96 with DLD-1; 7.70 in [1].

As to `COc1cc(Nc2cc(-c3cccc(C#N)c3)ccn2)ccc1N1CCOCC1`, the pIC50 was 5.11 in data set [13] and 7.26 in data set [1].
